Results on 1 compound are retold here after ChEMBL document CHEMBL1123329, “Aromatase inhibitors. Synthesis and evaluation of mammary tumor inhibiting activity of 3-alkylated 3-(4-aminophenyl)piperidine-2,6-diones” (J Med Chem, 1986).

Values joined by “and” are separate entries in the source; they are usually repeats but may differ in a detail not shown here. Equal entries are not always repeated.

The species named for experiment [1] is Rattus norvegicus. It counts as functional. The note with it: dose 20 mg/kg.
For experiment [2], the species on record is Rattus norvegicus. The format is functional. The note with it: dose 20 mg/kg. This is another data set of the same source.

On to `C[C@]12CC[C@H]3[C@@H](CCC4=CC(=O)CC[C@@]43C)[C@@H]1CC[C@@H]2O` [TESTOSTERONE], for which the “Change of tumor area” value in experiment [1] was -37% and -24% and -29%. Besides, the Uterine weight effect in experiment [2] was 23.3 and 29.3 and 34.7.
